# From patent US8192962B2, “Processes for detecting toxic substances” (Daikin Industries, Ltd., priority 2001, dated 2012)
# Tested on: Transport facilitation protein genes
# Experiment: DNA chip mRNA expression in yeast, transport facilitation protein genes (Table 5)
# Type: cell-based, Saccharomyces cerevisiae S288C
# Procedure, shortened: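 Cells were grown at 25° C. in YPD, treated at logarithmic phase for 2 h with a chemical at a concentration inhibiting growth but not causing death, and compared with untreated cultures. Labeled cDNA was hybridized to a DNA chip carrying all yeast genes, and the expression ratio was taken from scanner fluorescence.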
smiles,measurement,setting,value
"CN(C)C(=S)SSC(=S)N(C)C [(10), Tetramethylthiuram disulfide]",The level of expressed mRNA in the presence of chemical substance/The level of expressed mRNA in the absence of chemical substance,yeast gene YGR281W,1.4
same,The level of expressed mRNA in the presence of chemical substance/The level of expressed mRNA in the absence of chemical substance,yeast gene YHL035C,4.6
same,The level of expressed mRNA in the presence of chemical substance/The level of expressed mRNA in the absence of chemical substance,yeast gene YHL036W,4.4
same,The level of expressed mRNA in the presence of chemical substance/The level of expressed mRNA in the absence of chemical substance,yeast gene YHL040C,11.3
same,The level of expressed mRNA in the presence of chemical substance/The level of expressed mRNA in the absence of chemical substance,yeast gene YHL047C,11.9
same,The level of expressed mRNA in the presence of chemical substance/The level of expressed mRNA in the absence of chemical substance,yeast gene YHR026W,0.9
same,The level of expressed mRNA in the presence of chemical substance/The level of expressed mRNA in the absence of chemical substance,yeast gene YHR092C,0.9
same,The level of expressed mRNA in the presence of chemical substance/The level of expressed mRNA in the absence of chemical substance,yeast gene YHR094C,1.2
same,The level of expressed mRNA in the presence of chemical substance/The level of expressed mRNA in the absence of chemical substance,yeast gene YHR175W,2.0
same,The level of expressed mRNA in the presence of chemical substance/The level of expressed mRNA in the absence of chemical substance,yeast gene YIL006W,1.1
same,The level of expressed mRNA in the presence of chemical substance/The level of expressed mRNA in the absence of chemical substance,yeast gene YIL022W,1.3
same,The level of expressed mRNA in the presence of chemical substance/The level of expressed mRNA in the absence of chemical substance,yeast gene YIL056W,1.6
same,The level of expressed mRNA in the presence of chemical substance/The level of expressed mRNA in the absence of chemical substance,yeast gene YIL088C,1.7
same,The level of expressed mRNA in the presence of chemical substance/The level of expressed mRNA in the absence of chemical substance,yeast gene YJL034W,1.1
same,The level of expressed mRNA in the presence of chemical substance/The level of expressed mRNA in the absence of chemical substance,yeast gene YJL212C,1.3
same,The level of expressed mRNA in the presence of chemical substance/The level of expressed mRNA in the absence of chemical substance,yeast gene YJL219W,2.3
same,The level of expressed mRNA in the presence of chemical substance/The level of expressed mRNA in the absence of chemical substance,yeast gene YJR077C,0.7
same,The level of expressed mRNA in the presence of chemical substance/The level of expressed mRNA in the absence of chemical substance,yeast gene YJR106W,1.6
same,The level of expressed mRNA in the presence of chemical substance/The level of expressed mRNA in the absence of chemical substance,yeast gene YJR121W,1.3
same,The level of expressed mRNA in the presence of chemical substance/The level of expressed mRNA in the absence of chemical substance,yeast gene YKL016C,1.8
same,The level of expressed mRNA in the presence of chemical substance/The level of expressed mRNA in the absence of chemical substance,yeast gene YKL146W,2.8
same,The level of expressed mRNA in the presence of chemical substance/The level of expressed mRNA in the absence of chemical substance,yeast gene YKL188C,2.8
same,The level of expressed mRNA in the presence of chemical substance/The level of expressed mRNA in the absence of chemical substance,yeast gene YKR039W,2.0
same,The level of expressed mRNA in the presence of chemical substance/The level of expressed mRNA in the absence of chemical substance,yeast gene YKR067W,2.3
same,The level of expressed mRNA in the presence of chemical substance/The level of expressed mRNA in the absence of chemical substance,yeast gene YLL028W,2.3
same,The level of expressed mRNA in the presence of chemical substance/The level of expressed mRNA in the absence of chemical substance,yeast gene YLL055W,14.0
same,The level of expressed mRNA in the presence of chemical substance/The level of expressed mRNA in the absence of chemical substance,yeast gene YLR081W,2.2
same,The level of expressed mRNA in the presence of chemical substance/The level of expressed mRNA in the absence of chemical substance,yeast gene YLR295C,1.2
same,The level of expressed mRNA in the presence of chemical substance/The level of expressed mRNA in the absence of chemical substance,yeast gene YLR348C,1.3
same,The level of expressed mRNA in the presence of chemical substance/The level of expressed mRNA in the absence of chemical substance,yeast gene YLR378C,0.7
same,The level of expressed mRNA in the presence of chemical substance/The level of expressed mRNA in the absence of chemical substance,yeast gene YMR011W,0.7
same,The level of expressed mRNA in the presence of chemical substance/The level of expressed mRNA in the absence of chemical substance,yeast gene YMR058W,1.4
same,The level of expressed mRNA in the presence of chemical substance/The level of expressed mRNA in the absence of chemical substance,yeast gene YMR162C,1.0
same,The level of expressed mRNA in the presence of chemical substance/The level of expressed mRNA in the absence of chemical substance,yeast gene YMR203W,1.2
same,The level of expressed mRNA in the presence of chemical substance/The level of expressed mRNA in the absence of chemical substance,yeast gene YNL055C,1.0
same,The level of expressed mRNA in the presence of chemical substance/The level of expressed mRNA in the absence of chemical substance,yeast gene YNL259C,2.1
same,The level of expressed mRNA in the presence of chemical substance/The level of expressed mRNA in the absence of chemical substance,yeast gene YNR072W,1.8
same,The level of expressed mRNA in the presence of chemical substance/The level of expressed mRNA in the absence of chemical substance,yeast gene YOL119C,7.4
same,The level of expressed mRNA in the presence of chemical substance/The level of expressed mRNA in the absence of chemical substance,yeast gene YOL156W,2.1
same,The level of expressed mRNA in the presence of chemical substance/The level of expressed mRNA in the absence of chemical substance,yeast gene YOL163W,6.2
same,The level of expressed mRNA in the presence of chemical substance/The level of expressed mRNA in the absence of chemical substance,yeast gene YOR035C,1.7
same,The level of expressed mRNA in the presence of chemical substance/The level of expressed mRNA in the absence of chemical substance,yeast gene YOR130C,1.7
same,The level of expressed mRNA in the presence of chemical substance/The level of expressed mRNA in the absence of chemical substance,yeast gene YOR153W,1.2
same,The level of expressed mRNA in the presence of chemical substance/The level of expressed mRNA in the absence of chemical substance,yeast gene YOR270C,0.9
same,The level of expressed mRNA in the presence of chemical substance/The level of expressed mRNA in the absence of chemical substance,yeast gene YOR273C,0.5
same,The level of expressed mRNA in the presence of chemical substance/The level of expressed mRNA in the absence of chemical substance,yeast gene YOR316C,2.0
same,The level of expressed mRNA in the presence of chemical substance/The level of expressed mRNA in the absence of chemical substance,yeast gene YOR332W,1.1
same,The level of expressed mRNA in the presence of chemical substance/The level of expressed mRNA in the absence of chemical substance,yeast gene YOR348C,0.4
same,The level of expressed mRNA in the presence of chemical substance/The level of expressed mRNA in the absence of chemical substance,yeast gene YPL036W,0.3
same,The level of expressed mRNA in the presence of chemical substance/The level of expressed mRNA in the absence of chemical substance,yeast gene YPL134C,0.8
same,The level of expressed mRNA in the presence of chemical substance/The level of expressed mRNA in the absence of chemical substance,yeast gene YPL265W,1.2
same,The level of expressed mRNA in the presence of chemical substance/The level of expressed mRNA in the absence of chemical substance,yeast gene YPL271W,1.2
same,The level of expressed mRNA in the presence of chemical substance/The level of expressed mRNA in the absence of chemical substance,yeast gene YPR124W,1.5
same,The level of expressed mRNA in the presence of chemical substance/The level of expressed mRNA in the absence of chemical substance,yeast gene YPR192W,1.3
same,The level of expressed mRNA in the presence of chemical substance/The level of expressed mRNA in the absence of chemical substance,yeast gene YPR194C,0.6
